Patent publication US11992475B1, “Application of Z-ligustilide in resisting rotaviruses” (GUANGDONG MEDICAL UNIVERSITY, priority 2023, dated 2024)

Tests used:
MA104 cells = test: Toxicity of Z-ligustilide to MA104 cells (MTT assay); format: cell-based; conditions: 48 h
Procedure: According to the common drug concentration range of Z-ligustilide, the cytotoxicity pre-experiment is performed in the range of 1-100 μM in this experiment. The MA104 cells at the logarithmic phase are observed under a microscope, the cellular morphology is uniform and full with clear edges, and when the number reaches 80%, digestion, centrifugation and re-suspension are conducted. After further dilution, 10 μl of the suspension is taken on a blood cell counting plate to count and calculate the required cell volume. Then, the cells are laid in a 96-well plate, 100 μl of cell suspension is added in each well, and the cell density is 8×10^4 cells/mL. When the cells adhere to the wall to form a single layer, the drug group is administered, and the normal group is added with an equal volume of DMEM (without serum). After incubation for 48 h, the cytotoxicity of Z-ligustilide is detected by MTT reagent. 1/10 volume of MTT solution is added in each well and incubated in an incubator. After 4 h, the solution in the wells is sucked out, 150 μL of DMSO is added in each well, and the absorbance is measured and recorded at a wavelength of 490 nm under the condition of oscillation for 30 s.
The formula of the relative survival rate of the cells is: {(Aexperimental group−Ablank)/(Acontrol group−Ablank)×100%}

RV (Wa strain RV) [1] = test: Effect of Z-ligustilide in resisting RV adsorption (MTT, MA104 cells); format: cell-based, Rotavirus (RV); conditions: for inhibition rate against RV (resisting adsorption): drug 2 h before virus, 48 h
Procedure: The drug solution is added in a 96-well culture plate of MA104 cells that grow to a single layer, and each drug solution is added in 6 wells at an amount of 100 μL/well. An equal volume of ribavirin is added to the positive control group, and only an equal volume of DMEM culture solution (without serum) is added to the normal cell control group and the viral control group. Incubation is conducted in 5% CO2 at 37° C. for 2 h. The drug solution is sucked out. Except the normal cell control group, 100TCID50 virus is added (the virus acts with 10 μg/mL pancreatin at 37° C. for 30 min) at an amount of 100 μL/well. Incubation is conducted in 5% CO2 at 37° C. for 2 h. The virus is sucked out, the cell maintenance medium is added at an amount of 200 μL/well. Incubation is conducted in 5% CO2 at 37° C. for continuous observation. After culture for 48 h, an MTT kit is used for detection. 1/10 volume of MTT solution is added in each well and incubated in an incubator. After 4 h, the supernatant is sucked out, DMSO is added, and the absorbance is measured and recorded at a wavelength of 490 nm. The experiment is repeated for 3 times.
(§1) The formula of the viral inhibition rate is: {(Adrug group−Avirus group)/(Anormal group−Avirus group)×100%}

RV (Wa strain RV) [2] = test: Effect of Z-ligustilide in directly killing RV (MTT, MA104 cells); format: cell-based, Rotavirus (RV); conditions: for inhibition rate against RV (directly killing): drug mixed with virus 2 h, 48 h
Procedure: The drug is mixed with 100TCID50 virus solution (the virus acts with 10 μg/mL pancreatin for 30 min) at an equal volume to act for 2 h. After the cells are washed twice with PBS, the cells are added in a 96-well culture plate of MA104 cells that grow to a single layer. The same operation as above is conducted for ribavirin and RV in the positive control group, and only an equal volume of DMEM is added to the normal cell control group and the viral control group. Incubation is conducted in 5% CO2 at 37° C. for 2 h, the mixed solution is sucked out, and the cell maintenance medium is added at an amount of 100 μL/well. Incubation is conducted in 5% CO2 at 37° C. for continuous observation. After continuous culture for 48 h, an MTT kit is used for detection. 1/10 volume of MTT solution is added in each well and incubated in an incubator. After 4 h, the supernatant is sucked out, DMSO is added, and the absorbance is measured and recorded at a wavelength of 490 nm. The experiment is repeated for 3 times. The viral inhibition rate of the drug is calculated. The formula of the viral inhibition rate is: {(Adrug group−Avirus group)/(Anormal group−Avirus group)×100%}

RV (Wa strain RV) [3] = test: Effect of Z-ligustilide in resisting RV synthesis (MTT, MA104 cells); format: cell-based, Rotavirus (RV); conditions: for inhibition rate against RV (resisting biosynthesis): drug after virus, 48 h
Procedure: as §1
100TCID50 virus solution (the virus acts with 10 μg/mL pancreatin for 30 min) is added in a 96-well culture plate of MA104-2 cells that grow to a single layer, at an amount of 100 μL/well. The cells have been washed twice with PBS. A normal cell control group is set, and added with an equal volume of DMEM culture solution. Incubation is conducted in 5% CO2 at 37° C. for 2 h, the virus solution is sucked out, and drug solution and ribavirin of different concentrations are added respectively at an amount of 100 μL/well. A viral control group is set, and only added with the cell maintenance medium at an amount of 100 μL/well. Incubation is conducted in 5% CO2 at 37° C. for continuous observation. After continuous culture for 48 h, an MTT kit is used for detection. 1/10 volume of MTT solution is added in each well and incubated in an incubator. After 4 h, the supernatant is sucked out, DMSO is added, and the absorbance is measured and recorded at a wavelength of 490 nm. The experiment is repeated for 3 times. The viral inhibition rate of the drug is calculated.

[4] = test system: structural protein VP6 of RV; test: Gene expression level of structural protein VP6 of RV in RV-infected MA104 cells (real time PCR); format: cell-based, Rotavirus (RV), Wa strain; conditions: for VP6 expression level compared with the RV group: 48 h, GAPDH internal reference
Procedure: (1) To further verify whether Z-ligustilide has an effect of inhibiting RV synthesis, after Z-ligustilide inhibits RV synthesis for 48 h, drug groups of low, medium and high concentrations, the ribavirin group, the N group and the RV group are selected, the supernatant is removed, the solution is washed twice with PBS, 1 ml of Trizol reagent is added, and then the solution is collected into a 1.5 mL enzyme-free EP tube after standing for 5 min. 200 μL of chloroform is added in the tube. After vortex oscillation for 15 s, the solution is stood at room temperature for 3 min, and centrifuged (4° C., 12000 r/min, 15 min). The centrifuged sample is divided into three layers: a colorless upper layer, a white middle layer and a red lower layer.
(2) The supernatant is carefully sucked into a new 1.5 mL enzyme-free EP tube (with a volume of about 500 μL), and an equal volume of pre-cooled isopropanol is added. The solution is shaken up and down violently, mixed well, stood at 4° C. for 10 min, and centrifuged (4° C., 12000 r/min, 10 min).
(3) After centrifugation, white precipitate can be seen at the bottom of the EP tube. The supernatant is removed, and the precipitate is retained. 1 mL of the prepared 75% ethanol solution (prepared from anhydrous ethanol and enzyme-free water at a ratio of 3:1) is added, shaken and mixed well, and centrifuged (4° C., 12000 r/min, 5 min). The supernatant is discarded, and the solution is stood at room temperature for 15-20 min for drying.
(4) After drying, 20 μL of DEPC water is added in the EP tube, and the tube wall is gently blown to dissolve RNA. The RNA concentration of the sample is determined by a NanoDrop micro ultraviolet spectrophotometer, and then the sample can be used directly for the experiment or stored at −80° C. for later use.
A reaction mixture is prepared on ice according to the following components in a reaction volume of 20 μL in accordance with the instructions of Evo M-MLV RT Kit with gDNA Clean for qPCR II. The consumables used in the experiment are all Axygen enzyme-free consumables.
Reaction conditions: 42° C. 2 min, 4° C.
The reaction solution is prepared according to the following table, and the reverse transcription reaction is performed.
Reaction conditions: 37° C. 15 min, 85° C. 5 sec, 4° C.
Real time quantitative PCR is used to detect the control group and the RVWa strain-infected group by SYBR Green I fluorescent labeling. SYBR® Green Premix Pro Taq HS qPCR Kit II is used, and GAPDH is selected as the internal reference. In the experiment, dedicated real-time eight-row PCR tubes for Axygen are used for preparing a real-time fluorescence quantitative PCR amplification reaction system according to the following table, and the reaction solution is prepared on ice (the total reaction system is 10 μL).

[5] = 1st of six values printed for 65-90 μM
[6] = 2nd of six values printed for 65-90 μM
[7] = 3rd of six values printed for 65-90 μM
[8] = 4th of six values printed for 65-90 μM
[9] = 5th of six values printed for 65-90 μM
[10] = 6th of six values printed for 65-90 μM

CCC/C=C1\OC(=O)C2=C1CCC=C2 [Z-ligustilide]
drug toxicity to the cells (MA104 cells; 60-95 μM): no drug toxicity
cell viability versus the normal group (MA104 cells; 65-90 μM): no significant difference
average survival rate (MA104 cells; drug concentration 60-95 μM): more than 95%
inhibition rate against RV (resisting adsorption) (RV (Wa strain RV) [1]; [5]): 4.85%
inhibition rate against RV (resisting adsorption) (RV (Wa strain RV) [1]; [6]): 4.55%
inhibition rate against RV (resisting adsorption) (RV (Wa strain RV) [1]; [7]): 1.14%
inhibition rate against RV (resisting adsorption) (RV (Wa strain RV) [1]; [8]): 3.95%
inhibition rate against RV (resisting adsorption) (RV (Wa strain RV) [1]; [9]): 3.01%
inhibition rate against RV (resisting adsorption) (RV (Wa strain RV) [1]; [10]): 4.69%
effect of resisting RV adsorption (RV (Wa strain RV) [1]; 65-90 μM): no obvious effect
maximum inhibition rate (resisting adsorption) (RV (Wa strain RV) [1]; within 65-90 μM): about 4.85%
inhibition rate against RV (directly killing) (RV (Wa strain RV) [2]; [5]): 2.32%
inhibition rate against RV (directly killing) (RV (Wa strain RV) [2]; [6]): 3.25%
inhibition rate against RV (directly killing) (RV (Wa strain RV) [2]; [7]): 0.93%
inhibition rate against RV (directly killing) (RV (Wa strain RV) [2]; [8]): 0.4%
inhibition rate against RV (directly killing) (RV (Wa strain RV) [2]; [9]): 6.45%
inhibition rate against RV (directly killing) (RV (Wa strain RV) [2]; [10]): 5.89%
effect of directly killing RV (RV (Wa strain RV) [2]; 65-90 μM): no obvious effect
effect of inhibiting RV biosynthesis (RV (Wa strain RV) [3]): has an effect of inhibiting RV biosynthesis
inhibition rate against RV (resisting biosynthesis) (RV (Wa strain RV) [3]; 80 µM, without statistical difference from the ribavirin group): 64.21%
inhibition of rotavirus biosynthesis (RV (Wa strain RV) [3]; 70-85 μM): can effectively inhibit rotavirus biosynthesis
inhibition rate against RV (resisting biosynthesis) (RV (Wa strain RV) [3]; 70-85 μM): more than 50%
VP6 expression level compared with the RV group ([4]; 75 μM): significantly decreased
VP6 expression level compared with the RV group ([4]; 80 μM): significantly decreased
VP6 expression level compared with the RV group ([4]; 85 μM): significantly decreased
concentration at which VP6 expression is inhibited most significantly ([4]; among 75 μM, 80 μM and 85 μM): 75 µM
